Where two headings read alike, the source gives them in different places.
Experiments:
[1] = system: hiPSC-CM (iCell Cardiomyocytes^2); assay: Intracellular miRNA expression by RT-qPCR in hiPSC-CM pellets after 72-hour treatment; settings: for hsa-miR-7-5p fold change, intracellular / hsa-miR-29a-5p fold change, intracellular / hsa-miR-126-3p fold change, intracellular / hsa-miR-133b fold change, intracellular / hsa-miR-146b-5p fold change, intracellular / hsa-miR-182-5p fold change, intracellular / hsa-miR-185-3p fold change, intracellular / hsa-miR-187-3p fold change, intracellular / hsa-miR-208b-3p fold change, intracellular / hsa-miR-365a-5p fold change, intracellular / hsa-miR-96-5p fold change, intracellular / fold induction at 0.3 µM / fold induction at 1 µM / fold induction at 3 µM / fold induction at 10 µM: 72 h; for fold induction at 0.3 µM / fold induction at 1 µM / fold induction at 3 µM / fold induction at 10 µM: Homo sapiens
In short: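 After 72-hour treatment and RTCA CardioECR assessment, total RNA from hiPSC-CM pellets was reverse transcribed, pre-amplified and quantified by TaqMan RT-qPCR against a 17-miRNA panel. Triplicates were pooled, so no statistical analysis was performed.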

[2] = ref extensive literature search, cited from earlier work
[3] = system: hiPSC-CM (iCell Cardiomyocytes^2); assay: RTCA CardioECR assessment (impedance and electrophysiology parameters)
In short: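 iCell^2 cardiomyocytes on fibronectin-coated ePlates monitored continuously by impedance for cell index, beating rate and amplitude. Field potential duration and spike amplitude were recorded from day 4–6 after monolayer formation. Data were double-normalized to DMSO control and baseline, with variability given as SD.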

[4] = read-out: hsa-miR-7-5p fold change
[5] = read-out: hsa-miR-29a-5p fold change
[6] = read-out: hsa-miR-96-5p fold change
[7] = read-out: hsa-miR-126-3p fold change
[8] = read-out: hsa-miR-146b-5p fold change
[9] = read-out: hsa-miR-182-5p fold change
[10] = read-out: hsa-miR-185-3p fold change
[11] = read-out: hsa-miR-187-3p fold change
[12] = read-out: hsa-miR-208b-3p fold change

## Cc1cn(-c2cc(NC(=O)c3ccc(C)c(Nc4nccc(-c5cccnc5)n4)c3)cc(C(F)(F)F)c2)cn1 [Nilotinib]
[1]
  intracellular miRNA upregulation in hiPSC-CM, in words: smallest fold change
  miRNAs hiPSC-CM pellet, MEC overall: 0.3 µM
  miRNAs upregulated at the MEC overall (hiPSC-CM pellet): miR-126-3p
[1]; 0.01 µM
  hsa-miR-7-5p fold change, intracellular: 1.2
  hsa-miR-29a-5p fold change, intracellular: 0.5
  hsa-miR-126-3p fold change, intracellular: 1.4
  hsa-miR-133b fold change, intracellular: 0.3
  hsa-miR-146b-5p fold change, intracellular: 0.2
  hsa-miR-182-5p fold change, intracellular: 0.3
  hsa-miR-185-3p fold change, intracellular: 0.7
  hsa-miR-187-3p fold change, intracellular: 0.7
  hsa-miR-208b-3p fold change, intracellular: 1.0
  hsa-miR-365a-5p fold change, intracellular: 0.8
[1]; 0.1 µM
  hsa-miR-7-5p fold change, intracellular: 1.2
  hsa-miR-29a-5p fold change, intracellular: 0.2
  hsa-miR-96-5p fold change, intracellular: 0.3
  hsa-miR-126-3p fold change, intracellular: 3.0
  hsa-miR-133b fold change, intracellular: 0.2
  hsa-miR-146b-5p fold change, intracellular: 0.2
  hsa-miR-182-5p fold change, intracellular: 0.2
  hsa-miR-185-3p fold change, intracellular: 1.5
  hsa-miR-187-3p fold change, intracellular: 0.7
  hsa-miR-208b-3p fold change, intracellular: 1.1
  hsa-miR-365a-5p fold change, intracellular: 0.2
[1]; 0.3 µM
  hsa-miR-7-5p fold change, intracellular: 0.5
  hsa-miR-29a-5p fold change, intracellular: 0.2
  hsa-miR-126-3p fold change, intracellular: 4.3
  hsa-miR-133b fold change, intracellular: 0.4
  hsa-miR-146b-5p fold change, intracellular: 0.2
  hsa-miR-182-5p fold change, intracellular: 0.7
  hsa-miR-185-3p fold change, intracellular: 0.7
  hsa-miR-187-3p fold change, intracellular: 0.5
  hsa-miR-208b-3p fold change, intracellular: 0.5
  hsa-miR-365a-5p fold change, intracellular: 0.7
[1]; 1 µM
  hsa-miR-7-5p fold change, intracellular: 0.9
  hsa-miR-29a-5p fold change, intracellular: 0.4
  hsa-miR-96-5p fold change, intracellular: 1.4
  hsa-miR-126-3p fold change, intracellular: 5.5
  hsa-miR-133b fold change, intracellular: 0.3
  hsa-miR-146b-5p fold change, intracellular: 0.3
  hsa-miR-182-5p fold change, intracellular: 0.4
  hsa-miR-185-3p fold change, intracellular: 0.3
  hsa-miR-187-3p fold change, intracellular: 0.7
  hsa-miR-208b-3p fold change, intracellular: 1.2
[2]; Supplementary Table 1
  Cmax total: 0.84 to 4.27 µM
[2]; Table 1
  Cmax total: 0.84 to 4.27 µM
[3]; hiPSC-CM, 72-hour treatment, lowest concentration causing at least 20% change from baseline
  Cell index (CI) MEC: ND (ND – not detected, magnitude of change was lower than 20%)
[3]; hiPSC-CM, change ≥20%, Table 2
  RTCA, MEC (CI): ND (ND – not detected, magnitude of change was lower than 20% for CI/BR)
[3]; human, 72 h
  Contractility Amplitude MEC: 0.1 µM
  Spike Amplitude (SA) MEC: 0.01 µM

## N=C(N)c1ccc(OCCCCCOc2ccc(C(=N)N)cc2)cc1 [Pentamidine]
[1]
  miRNAs hiPSC-CM pellet, MEC overall: 0.1 µM
  miRNAs upregulated at the MEC overall (hiPSC-CM pellet): miR-126-3p, miR-146b-5p, miR-208b-3p
[2]; Supplementary Table 1
  Cmax total: 1.8 µM
[2]; Table 1
  Cmax total: 1.80 µM
[3]; human, 72 h
  Beating Rate MEC: 3 µM
  Beating rate (BR) MEC: 3 µM
  Contractility Amplitude MEC: 0.1 µM
  Field Potential Duration MEC: 1 µM
  RTCA, MEC (BR): 3 µM (CI, BR)
  RTCA, MEC (CI): 3 µM (CI, BR)
  Spike Amplitude (SA) MEC: 0.1 µM

## CCCN1C[C@H](CSC)C[C@@H]2c3cccc4[nH]cc(c34)C[C@H]21 [Pergolide]
[1]
  miRNAs hiPSC-CM pellet, MEC overall: 0.3 µM
  miRNAs upregulated at the MEC overall (hiPSC-CM pellet): miR-96-5p, miR-146b-5p
[1]; [4]
  fold induction at 0.3 µM: 1
  fold induction at 1 µM: 0.7
  fold induction at 3 µM: 1.4
  fold induction at 10 µM: 1
[1]; [5]
  fold induction at 0.3 µM: 1
  fold induction at 1 µM: 0.2
[1]; [6]
  fold induction at 0.3 µM: 2.8
  fold induction at 1 µM: 5.6
[1]; [7]
  fold induction at 0.3 µM: 1.2
  fold induction at 1 µM: 1.1
  fold induction at 3 µM: 1.1
  fold induction at 10 µM: 2
[1]; [8]
  fold induction at 0.3 µM: 4.3
  fold induction at 1 µM: 6.1
  fold induction at 3 µM: 20.8
  fold induction at 10 µM: 1.1
[1]; [9]
  fold induction at 0.3 µM: 0.5
  fold induction at 1 µM: 2.2
  fold induction at 3 µM: 0.9
  fold induction at 10 µM: 2.2
[1]; [10]
  fold induction at 0.3 µM: 1.1
  fold induction at 1 µM: 5.6
  fold induction at 3 µM: 7.2
  fold induction at 10 µM: 1.9
[1]; [11]
  fold induction at 0.3 µM: 0.6
  fold induction at 1 µM: 0.9
  fold induction at 3 µM: 21.8
  fold induction at 10 µM: 0.6
[1]; [12]
  fold induction at 0.3 µM: 1.5
  fold induction at 1 µM: 2.2
  fold induction at 3 µM: 2.6
  fold induction at 10 µM: 2.5
[1]; read-out: hsa-miR-365a-5p fold change
  fold induction at 1 µM: 5.2
[1]; read-out: hsa-miR-[…] change
  fold induction at 0.3 µM: 0.9
  fold induction at 1 µM: 1.1
  fold induction at 3 µM: 1.7
  fold induction at 10 µM: 1.4
[2]; Supplementary Table 1
  Cmax total: 12.7 µM
[2]; Table 1
  Cmax total: 12.7 µM
[3]; human, 72 h
  Contractility Amplitude MEC: 0.0003 µM
  Spike Amplitude (SA) MEC: 10 µM

Source: publication PMC12332266 (Frontiers in Pharmacology, 2025)
